In brackets after ≈: the same amount, converted by molar mass.
What was measured:
Salmonella typhimurium [1] = assay: Antimicrobial activity against Salmonella typhimurium 1926 after 20 hrs by two-fold serial dilution technique; format: functional, Salmonella enterica subsp. enterica serovar Typhimurium; settings: Salmonella enterica, 1926, 20 h
Escherichia coli [2] = assay: Antimicrobial activity against Escherichia coli KCTC 1924 after 20 hrs by two-fold serial dilution technique; format: functional; settings: KCTC 1924, 20 h
Escherichia coli [3] = assay: Antimicrobial activity against Escherichia coli CCARM 1356 after 20 hrs by two-fold serial dilution technique; format: functional; settings: CCARM 1356, 20 h
Streptococcus mutans = assay: Antimicrobial activity against Streptococcus mutans 3065 after 20 hrs by two-fold serial dilution technique; format: functional; settings: Streptococcus mutans, 3065, 20 h
Salmonella typhimurium [4] = assay: Antimicrobial activity against Salmonella typhimurium 2421 after 20 hrs by two-fold serial dilution technique; format: functional, Salmonella enterica subsp. enterica serovar Typhimurium; settings: Salmonella enterica, 2421, 20 h
Staphylococcus aureus [5] = assay: Antimicrobial activity against Staphylococcus aureus RN4220 after 20 hrs by two-fold serial dilution technique; format: functional; settings: RN4220, 20 h
Staphylococcus aureus [6] = assay: Antimicrobial activity against Staphylococcus aureus 503 after 20 hrs by two-fold serial dilution technique; format: functional; settings: Staphylococcus aureus, 503, 20 h
Staphylococcus aureus [7] = assay: Antimicrobial activity against methicillin-resistant Staphylococcus aureus clinical isolate 3506 after 20 hrs by two-fold serial dilution technique; format: functional; settings: isolate 3506, 20 h
Staphylococcus aureus [8] = assay: Antimicrobial activity against quinolone-resistant Staphylococcus aureus clinical isolate 3505 after 20 hrs by two-fold serial dilution technique; format: functional; settings: isolate 3505, 20 h
Pseudomonas aeruginosa [9] = assay: Antimicrobial activity against Pseudomonas aeruginosa 2004 after 20 hrs by two-fold serial dilution technique; format: functional; settings: Pseudomonas aeruginosa, 2004, 20 h
Pseudomonas aeruginosa [10] = assay: Antimicrobial activity against Pseudomonas aeruginosa 2742 after 20 hrs by two-fold serial dilution technique; format: functional; settings: Pseudomonas aeruginosa, 2742, 20 h
Staphylococcus aureus [11] = assay: Antimicrobial activity against methicillin-resistant Staphylococcus aureus clinical isolate 3167 after 20 hrs by two-fold serial dilution technique; format: functional; settings: isolate 3167, 20 h
Candida albicans = assay: Antimicrobial activity against Candida albicans 7535 after 20 hrs by two-fold serial dilution technique; format: functional; settings: Candida albicans, 7535, 20 h
Staphylococcus aureus [12] = assay: Antimicrobial activity against quinolone-resistant Staphylococcus aureus clinical isolate 3519 after 20 hrs by two-fold serial dilution technique; format: functional; settings: isolate 3519, 20 h
Staphylococcus aureus [13] = assay: Antimicrobial activity against Staphylococcus aureus 209 after 20 hrs by two-fold serial dilution technique; format: functional; settings: Staphylococcus aureus, 209, 20 h

Row | SMILES | MIC (Salmonella typhimurium [1]) [mg/L] | MIC (Escherichia coli [2]) [mg/L] | MIC (Escherichia coli [3]) [mg/L] | MIC (Streptococcus mutans) [mg/L] | MIC (Salmonella typhimurium [4]) [mg/L] | MIC (Staphylococcus aureus [5]) [mg/L] | MIC (Staphylococcus aureus [6]) [mg/L] | MIC (Staphylococcus aureus [7]) [mg/L] | MIC (Staphylococcus aureus [8]) [mg/L] | MIC (Pseudomonas aeruginosa [9]) [mg/L] | MIC (Pseudomonas aeruginosa [10]) [mg/L] | MIC (Staphylococcus aureus [11]) [mg/L] | MIC (Candida albicans) [mg/L] | MIC (Staphylococcus aureus [12]) [mg/L] | MIC (Staphylococcus aureus [13]) [mg/L]
1 | O=C1CSC(=S)N1[C@@H](Cc1ccccc1)c1nnc(-c2ccccc2)o1 | > 128 | > 128 | > 128 | 8 (≈ 21 µM) | > 128 | 16 (≈ 41.9 µM) | > 64 | 16 (≈ 41.9 µM) | 16 (≈ 41.9 µM) | > 128 | > 128 | 16 (≈ 41.9 µM) | > 64 | 16 (≈ 41.9 µM) | > 64
2 | Cc1cccc(-c2nnc([C@H](Cc3ccccc3)N3C(=O)/C(=C/c4ccc(C(=O)O)cc4)SC3=S)o2)c1 | > 128 | > 128 | > 128 | 4 (≈ 7.58 µM) | > 128 | 2 (≈ 3.79 µM) | > 64 | 4 (≈ 7.58 µM) | 2 (≈ 3.79 µM) | > 128 | > 128 | 2 (≈ 3.79 µM) | > 64 | 4 (≈ 7.58 µM) | > 64
3 | O=C(O)c1ccc(/C=C2\SC(=S)N([C@@H](Cc3ccccc3)c3nnc(-c4cccc(Cl)c4)o3)C2=O)cc1 | > 128 | > 128 | > 128 | 2 (≈ 3.65 µM) | > 128 | 2 (≈ 3.65 µM) | > 64 | 4 (≈ 7.3 µM) | 2 (≈ 3.65 µM) | > 128 | > 128 | 2 (≈ 3.65 µM) | > 64 | 4 (≈ 7.3 µM) | > 64
4 | O=C(O)c1ccc(/C=C2\SC(=S)N([C@@H](Cc3ccccc3)c3nnc(-c4cccc(Br)c4)o3)C2=O)cc1 | > 128 | > 128 | > 128 | 1 (≈ 1.69 µM) | > 128 | 2 (≈ 3.38 µM) | > 64 | 1 (≈ 1.69 µM) | 2 (≈ 3.38 µM) | > 128 | > 128 | 1 (≈ 1.69 µM) | > 64 | 2 (≈ 3.38 µM) | > 64
5 | O=C1CSC(=S)N1Cc1nnc(-c2ccccc2F)o1 | 64 (≈ 207 µM) | 32 (≈ 103 µM) | > 128 | 32 (≈ 103 µM) | 64 (≈ 207 µM) | 64 (≈ 207 µM) | 64 (≈ 207 µM) | 64 (≈ 207 µM) | 64 (≈ 207 µM) | > 128 | > 128 | 64 (≈ 207 µM) | 64 (≈ 207 µM) | 64 (≈ 207 µM) | 16 (≈ 51.7 µM)
6 | O=C1CSC(=S)N1Cc1nnc(-c2ccccc2)o1 | 64 (≈ 220 µM) | 64 (≈ 220 µM) | > 128 | 64 (≈ 220 µM) | 128 (≈ 439 µM) | 64 (≈ 220 µM) | 64 (≈ 220 µM) | 64 (≈ 220 µM) | 64 (≈ 220 µM) | > 128 | > 128 | 64 (≈ 220 µM) | 64 (≈ 220 µM) | 64 (≈ 220 µM) | 32 (≈ 110 µM)
7 | Cc1cccc(-c2nnc(CN3C(=O)/C(=C/c4ccc(C(=O)O)cc4)SC3=S)o2)c1 | > 128 | > 128 | > 128 | 16 (≈ 36.6 µM) | > 128 | 16 (≈ 36.6 µM) | 32 (≈ 73.1 µM) | 32 (≈ 73.1 µM) | 32 (≈ 73.1 µM) | > 128 | > 128 | 32 (≈ 73.1 µM) | > 64 | 32 (≈ 73.1 µM) | 32 (≈ 73.1 µM)
8 | O=C(O)c1ccc(/C=C2\SC(=S)N(Cc3nnc(-c4cccc(Cl)c4)o3)C2=O)cc1 | > 128 | > 128 | > 128 | 16 (≈ 34.9 µM) | > 128 | 8 (≈ 17.5 µM) | 16 (≈ 34.9 µM) | 32 (≈ 69.9 µM) | 16 (≈ 34.9 µM) | > 128 | > 128 | 8 (≈ 17.5 µM) | > 64 | 16 (≈ 34.9 µM) | 16 (≈ 34.9 µM)
9 | O=C(O)c1ccc(/C=C2\SC(=S)N(Cc3nnc(-c4cccc(Br)c4)o3)C2=O)cc1 | > 128 | > 128 | > 128 | 16 (≈ 31.8 µM) | > 128 | 16 (≈ 31.8 µM) | 16 (≈ 31.8 µM) | 16 (≈ 31.8 µM) | 16 (≈ 31.8 µM) | > 128 | > 128 | 8 (≈ 15.9 µM) | > 64 | 16 (≈ 31.8 µM) | 16 (≈ 31.8 µM)
10 | Cc1cccc(-c2nnc([C@H](Cc3ccccc3)N3C(=O)CSC3=S)o2)c1 | > 128 | > 128 | > 128 | 4 (≈ 10.1 µM) | > 128 | 8 (≈ 20.2 µM) | > 64 | 8 (≈ 20.2 µM) | 8 (≈ 20.2 µM) | > 128 | > 128 | 8 (≈ 20.2 µM) | > 64 | 8 (≈ 20.2 µM) | > 64
11 | O=C1CSC(=S)N1[C@@H](Cc1ccccc1)c1nnc(-c2cccc(Cl)c2)o1 | > 128 | > 128 | > 128 | 4 (≈ 9.62 µM) | > 128 | 8 (≈ 19.2 µM) | > 64 | 8 (≈ 19.2 µM) | 8 (≈ 19.2 µM) | > 128 | > 128 | 4 (≈ 9.62 µM) | > 64 | 8 (≈ 19.2 µM) | > 64
12 | O=C1CSC(=S)N1[C@@H](Cc1ccccc1)c1nnc(-c2cccc(Br)c2)o1 | > 128 | > 128 | > 128 | 2 (≈ 4.34 µM) | > 128 | 4 (≈ 8.69 µM) | > 64 | 4 (≈ 8.69 µM) | 2 (≈ 4.34 µM) | > 128 | > 128 | 2 (≈ 4.34 µM) | > 64 | 4 (≈ 8.69 µM) | > 64
13 | COc1c(N2C[C@@H]3CCCN[C@@H]3C2)c(F)cc2c(=O)c(C(=O)O)cn(C3CC3)c12 [MOXIFLOXACIN] | 1 (≈ 2.49 µM) | – | 128 (≈ 319 µM) | 0.25 (≈ 0.623 µM) | 0.5 (≈ 1.25 µM) | 0.25 (≈ 0.623 µM) | 2 (≈ 4.98 µM) | – | – | 2 (≈ 4.98 µM) | – | – | 0.5 (≈ 1.25 µM) | – | –
14 | CCn1cc(C(=O)O)c(=O)c2cc(F)c(N3CCNCC3)cc21 [NORFLOXACIN] | – | – | – | – | – | – | – | 4 (≈ 12.5 µM) | > 64 | – | – | 8 (≈ 25.1 µM) | – | > 64 | –
15 | Cc1onc(-c2ccccc2)c1C(=O)N[C@@H]1C(=O)N2[C@@H]1SC(C)(C)[C@@H]2C(=O)O [OXACILLIN] | – | – | – | – | – | – | – | > 64 | 1 (≈ 2.49 µM) | – | – | > 64 | – | 1 (≈ 2.49 µM) | –

Source: ChEMBL document CHEMBL3112479, “Synthesis and evaluation of the antimicrobial activities of 3-((5-phenyl-1,3,4-oxadiazol-2-yl)methyl)-2-thioxothiazolidin-4-one derivatives” (2014)
